Laboratory results as given in patent US7592372B2, “Liquid drug preparations” (Hisamitsu Pharmaceutical Co., Inc., priority 2001, dated 2009).

Tests used:
Format in all cases: physicochemical
[1] = Overall stability of liquid fudostein preparations after preservation at 70° C. for seven days; conditions: 8 g fudostein/100 ml
Protocol: (§1) Aqueous solutions containing 8 g of fudostein were adjusted to pH 2-7 using an appropriate amount of phosphoric acid or sodium hydroxide as shown in Table 1. Purified water was added to make the total amount of each solution 100 ml, thereby obtaining liquid fudostein preparations with different pHs. The liquid preparations were preserved at 70° C. for seven days to examine the residual ratio of fudostein in the solutions, color change, and sedimentation. The residual ratio of fudostein was calculated from the amount of fudostein determined by quantitative analysis using HPLC. The color change and sedimentation were evaluated by naked eye observation and rated according to the following standard. Aqueous solutions containing 8 g of fudostein and D-sorbitol in the amounts shown in Table 5 were adjusted to pH 3.5 by adding phosphoric acid. Purified water was added to make the total amount of each solution 100 ml, thereby obtaining liquid fudostein preparations.

[2] = Color change by naked eye observation after preservation at 70° C. for seven days; also: key: −: There was no color change in the liquid preparation; ±: There was slight color change in the liquid preparation; +: There was color change in the liquid preparation; ++: There was remarkable color change in the liquid preparation
Protocol: as §1, with “standard.” for “standard. Aqueous solutions containing 8 g of fudostein and D-sorbitol in the amounts shown in Table 5 were adjusted to pH 3.5 by adding phosphoric acid. Purified water was added to make the total amount of each solution 100 ml, thereby obtaining liquid fudostein preparations.”
Evaluation standard for color change:
(§2) Purified water was added to make the total amount of each solution 100 ml, thereby obtaining liquid fudostein preparations. […]
(§3) Aqueous solutions containing 8 g of fudostein and D-sorbitol in the amounts shown in Table 5 were adjusted to pH 3.5 by adding phosphoric acid. Purified water was added to make the total amount of each solution 100 ml, thereby obtaining liquid fudostein preparations.

[3] = Sedimentation by naked eye observation after preservation at 70° C. for seven days
Protocol: as §1, with “standard. […] (Results)” for “standard.”

[4] = Residual ratio of fudostein (HPLC) after preservation at 70° C. for seven days
Protocol: as §1, with “standard.” for “standard. Aqueous solutions containing 8 g of fudostein and D-sorbitol in the amounts shown in Table 5 were adjusted to pH 3.5 by adding phosphoric acid. Purified water was added to make the total amount of each solution 100 ml, thereby obtaining liquid fudostein preparations.”
as §2, §3

[5] = 8 g fudostein/100 ml aqueous solution, pH 2.0, 70° C. for seven days
[6] = 8 g fudostein/100 ml aqueous solution, pH 2.5, 70° C. for seven days
[7] = 8 g fudostein/100 ml aqueous solution, pH 3.0, 70° C. for seven days
[8] = 8 g fudostein/100 ml aqueous solution, pH 3.5, 70° C. for seven days
[9] = 8 g fudostein/100 ml aqueous solution, pH 4.0, 70° C. for seven days
[10] = 8 g fudostein/100 ml aqueous solution, pH 5.0, 70° C. for seven days
[11] = 8 g fudostein/100 ml aqueous solution, pH 6.0, 70° C. for seven days
[12] = 8 g fudostein/100 ml aqueous solution, pH 7.0, 70° C. for seven days
[13] = 8 g fudostein/100 ml, D-sorbitol 0%, pH 3.5, 70° C. for seven days
[14] = 8 g fudostein/100 ml, D-sorbitol 10%, pH 3.5, 70° C. for seven days
[15] = 8 g fudostein/100 ml, D-sorbitol 20%, pH 3.5, 70° C. for seven days
[16] = 8 g fudostein/100 ml, D-sorbitol 30%, pH 3.5, 70° C. for seven days
[17] = 8 g fudostein/100 ml, D-sorbitol 40%, pH 3.5, 70° C. for seven days
[18] = 8 g fudostein/100 ml, D-sorbitol 50%, pH 3.5, 70° C. for seven days

In the case of `N[C@@H](CSCCCO)C(=O)O` [fudostein, S-(3-hydroxypropyl)-L-cysteine], the “pH at which the liquid fudostein preparation remains stable” value ([1]; 70° C. for seven days) is reported as ≤ 5.0, the “sugar alcohol concentration at which liquid fudostein preparations are stable” value ([1]; D-sorbitol, pH 3.5, 70° C. for seven days) is reported as ≤ 40% and the Color change [2, 5] is reported as “−”. The Color change [2, 6] was “−”, the Color change [2, 7] was “−” and the Color change [2, 8] was “−”. The Color change [2, 9] was “−”, the Color change [2, 10] was “±” and the Color change [2, 11] was “+”. For the same compound, the Color change [2, 12] was “++”, the Color change [2, 13] was “−” and the Color change [2, 14] was “−”. The Color change [2, 15] was “−”, the Color change [2, 16] was “−” and the Color change [2, 17] was “±”. For the same compound, the Color change [2, 18] was “+”, the Sedimentation [3, 5] was “± (Slight sedimentation was observed.)” and the Sedimentation [3, 6] was “± (Slight sedimentation was observed.)”. For the same compound, the Sedimentation [3, 7] was “−”, the Sedimentation [3, 8] was “−” and the Sedimentation [3, 9] was “−”. The Sedimentation [3, 10] was “−”, the Sedimentation [3, 11] was “−” and the Sedimentation [3, 12] was “−”. The Sedimentation [3, 13] was “−”, the Sedimentation [3, 14] was “−” and the Sedimentation [3, 15] was “−”. For the same compound, the Sedimentation [3, 16] was “−”, the Sedimentation [3, 17] was “+ (Sedimentation was observed.)” and the Sedimentation [3, 18] was “+ (Sedimentation was observed.)”. For the same compound, the “Analytical value Residual ratio (%)” value [4, 5] was 99.9%, the “Analytical value Residual ratio (%)” value [4, 6] was 100.0% and the “Analytical value Residual ratio (%)” value [4, 7] was 100.7%. For the same compound, the “Analytical value Residual ratio (%)” value [4, 8] was 100.3%, the “Analytical value Residual ratio (%)” value [4, 9] was 101.1% and the “Analytical value Residual ratio (%)” value [4, 10] was 100.1%. For the same compound, the “Analytical value Residual ratio (%)” value [4, 11] was 100.4%, the “Analytical value Residual ratio (%)” value [4, 12] was 99.4% and the “Analytical value Residual ratio (%)” value ([4]; 8 g fudostein/100 ml, D-sorbitol 0%, pH 3.5 (phosphoric acid), 70° C. for seven days) was 99.6%. For the same compound, the “Analytical value Residual ratio (%)” value ([4]; 8 g fudostein/100 ml, D-sorbitol 10%, pH 3.5 (phosphoric acid), 70° C. for seven days) was 99.4%, the “Analytical value Residual ratio (%)” value ([4]; 8 g fudostein/100 ml, D-sorbitol 20%, pH 3.5 (phosphoric acid), 70° C. for seven days) was 99.0% and the “Analytical value Residual ratio (%)” value ([4]; 8 g fudostein/100 ml, D-sorbitol 30%, pH 3.5 (phosphoric acid), 70° C. for seven days) was 99.3%. For the same compound, the “Analytical value Residual ratio (%)” value ([4]; 8 g fudostein/100 ml, D-sorbitol 40%, pH 3.5 (phosphoric acid), 70° C. for seven days) was 99.9% and the “Analytical value Residual ratio (%)” value ([4]; 8 g fudostein/100 ml, D-sorbitol 50%, pH 3.5 (phosphoric acid), 70° C. for seven days) was 100.4%.
